Experimental findings from patent US20100273876A1, “ANTIBACTERIAL FORMULATION COMPRISING A DIALKYL SULPHOSUCCINATE AND A CARBANILIDE ANTIBACTERIAL AGENT” (priority 2007, published 2010) are described below.

Assay [1] concerns P. acnes NCTC 737. Nature of the assay: Disc diffusion / synergy disc diffusion assay ((S)DDA). Format: cell-based, Propionibacterium acnes. To be noted: for (S)DDA: diluted 1:2 with placebo, 10 μl per disc; for SDDA with DOSS: 200 μg TCC + 50 μg DOSS on one disc. The procedure:
(§1) The propionibacteria were cultured and maintained on Wilkins-Chalgren Anaerobe Medium (agar and broth) at pH 6.0; all cultures were incubated anaerobically at 37° C. for 72 hours.
(§2) A sterile paper disc was impregnated with a sample of the test compound in a suitable solvent and 30 minutes allowed for the solvents to evaporate (where possible). The disc was then placed on an agar plate onto which the test micro-organism had been inoculated. The plate was then incubated under the conditions described above, following which it was examined visually for signs of microbial growth. If the test compound had antimicrobial activity, a circular zone of no growth would be obtained around the disc. The diameter of this zone of “inhibition” was measured using a ProtoCOL™ automated zone sizer (Synbiosis, Cambridge, UK). In general, a greater diameter and/or area of the zone of inhibition indicates a greater antimicrobial activity in the relevant test compound, although other factors such as test compound mobility through the agar gel may also influence the result.
(§3) Two test a compounds A and B were placed on a single paper disc and the above described DDA procedure repeated. An increase in diameter of the zone of inhibition, compared to the greater of the zone diameters for the two compounds individually, was taken to indicate potential antimicrobial synergy. In practical terms, an increase of greater than 5 mm could be treated as significant.
Both the DDA and the SDDA test may be carried out using an agar gel supplemented with lipid and/or salt to simulate some of the major components present in human skin and to assess whether these substances might reduce the antimicrobial activity observed for the test compound. Performance under these conditions can provide a more reliable indication of activity on topical application. The supplements used in Examples 1, 11, 12 and 13 below were lipid (either Tween™ 80 at 1% v/v (Example 1) or triolein at 1% v/v (Examples 11, 12 and 13) and sodium chloride (100 mM).

For assay [2], the system named is P. acnes NCTC 737. Nature of the assay: Well diffusion assay. The class given is cell-based, Propionibacterium acnes. The note with it: gel (Solutol HS 15, ethanol, hydroxyethyl cellulose, water) with 5% w/w DOSS and/or 0.2% w/w TCC, diluted 1:2 with placebo gel. The protocol:
The propionibacteria were cultured and maintained on Wilkins-Chalgren Anaerobe Medium (agar and broth) at pH 6.0; all cultures were incubated anaerobically at 37° C. for 72 hours. A hole with a diameter of 8 mm was bored into the centre of an agar plate inoculated (swabbed) with the test-microorganism using a sterile “cork” borer (size No. 4). A volume (100 μl unless stated otherwise) of the test compound(s), either formulated or in a suitable solvent, was then placed into the bored hole. The plate was incubated under the conditions described above, following which it was examined visually for signs of microbial growth. If the test compound had antimicrobial activity, a circular zone of no growth would be obtained around the bored hole. The diameter of this zone of “inhibition” was measured using a ProtoCOL™ automated zone sizer (Synbiosis, Cambridge, UK). In general, a greater diameter and/or area of the zone of inhibition indicates a greater antimicrobial activity in the relevant test compound, although other factors such as test compound mobility through the agar gel, and the extent to which a compound is released from a formulation, may also influence the result.

Assay [3] has as its system P. granulosum PRP-006. Nature of the assay: Agar dilution MIC assay. Format: cell-based, Propionibacterium granulosum. The note with it: P. granulosum PRP-006 (MLS). The protocol:
as §1
This is a standard international method for quantitatively assessing the antimicrobial activity of a compound in a solid medium. The test compound was prepared to 40× the highest concentration required (eg, 10 mg/ml for a final concentration of 250 μg/ml) and a series of doubling dilutions were performed in a suitable solvent. A set amount of these antimicrobial stock solutions was then added to molten agar medium (ca. 55° C.), mixed thoroughly, poured into sterile Petri dishes and allowed to cool/set.
A Multipoint™ Inoculator (AQS Manufacturing Ltd, UK) was used to inoculate the plates by spotting the inocula onto the surface of the agar, delivering approximately 1 to 2 μl per spot (yielding 10^5 CFU(colony forming units) per spot).
The plate(s) were then incubated under the conditions described above, following which they were examined visually for signs of bacterial growth. The MIC value was ascertained when there was a marked reduction in, or total loss of, growth on the test plate at the lowest concentration as compared to that of the growth on the control plate.
The assays were conducted in duplicate and included a positive control (culture medium, diluting solvent and inoculum).

Assay [4] relates to EMRSA 15. Nature of the assay: (S)DDA disc diffusion. The class given is cell-based, Staphylococcus aureus. The note with it: 200 μg per disc. The protocol:
as §2, §3
(§4) The activities of DOSS and TCC against S. aureus ATCC 29213 and EMRSA 15 were determined using (S)DDAs as described above. 200 μg of the DOSS and/or the TCC were loaded onto each disc. All the experiments were conducted in triplicate.

The test system of assay [5] is S. aureus ATCC 29213. Nature of the assay: (S)DDA disc diffusion. Format: cell-based, Staphylococcus aureus. The note with it: 200 μg per disc. The protocol: as §2, §3, §4
Assay [6] has as its system Por. gingivalis NCTC 11834. Nature of the assay: MIC assay, liquid medium. Format: cell-based, Porphyromonas gingivalis. The procedure:
The P. gingivalis strains were cultured and maintained on Wilkins-Chalgren Anaerobe Medium (agar and broth) at pH 7.0; all cultures were incubated anaerobically at 37° C. for 5-7 days.
This is a standard international method for quantitatively assessing the antimicrobial activity of a compound in a liquid medium. The method used a sterile 96-well microtitre plate, capable of holding about 200 μl of liquid per well. The wells contained liquid culture medium and ranges of decreasing concentrations of the relevant test compound in doubling dilutions (eg, 1000, 500, 250, 125 . . . μg/ml, etc. down to 0.49 μg/ml). The culture media were as described above.
The wells were inoculated with a liquid suspension of freshly grown micro-organism and incubated under the conditions described above. After incubation, the microtitre plate was examined visually (with the aid of a light box) for cloudiness in each well, which would indicate microbial growth. The MIC value was recorded as the lowest concentration of test compound required to inhibit microbial growth, ie, the lowest concentration for which the liquid in the well remained clear.
The assays included both negative (culture medium with no micro-organisms) and positive (culture medium plus diluting solvent plus micro-organism) controls.

The test system of assay [7] is C. striatum NCTC 764. Nature of the assay: MIC assay, liquid medium. Format: cell-based, Corynebacterium striatum. The procedure: Several Corynebacterium test species were also used in this study, namely C. mucifaciens ATCC 700355, C. striatum NCTC 764, C. xerosis NCTC 11861 and C. jeikeium NCTC 11915. These Gram-positive pathogens are closely related to organisms (aerobic diphtheroids of the genus Corynebacterium) that cause body odour. C. mucifaciens and C. striatum were cultured and maintained on Mueller-Hinton Medium (agar and broth) and were incubated aerobically at 37° C. for 24 hours. C. xerosis and C. jeikeium were cultured and maintained on Mueller-Hinton Medium containing 5% (v/v) lysed horse blood (agar and broth) and were incubated aerobically at 37° C. for 72 hours.
This is a standard international method for quantitatively assessing the antimicrobial activity of a compound in a liquid medium. The method used a sterile 96-well microtitre plate, capable of holding about 200 μl of liquid per well. […]
The wells were inoculated with a liquid suspension of freshly grown micro-organism and incubated under the conditions described above. […] The MIC value was recorded as the lowest concentration of test compound required to inhibit microbial growth, ie, the lowest concentration for which the liquid in the well remained clear. […]

Setting [8] is: supplemented with salt (sodium chloride 100 mM) & lipid (Tween 80 1% v/v), 50 μg DOSS or 200 μg TCC per disc.
Setting [9] is: unsupplemented, 50 μg DOSS or 200 μg TCC per disc.
Setting [10] is: unsupplemented, with respect to the TCC.

Regarding dioctyl sodium sulphosuccinate [DOSS], the DDA in assay [1] (200 μg per disc, pH 6.0, single replicates) came out at 47.63 mm; in assay [1] (setting [8]) it was 0.00 mm; in assay [1] (setting [9]), 11.81 mm; in assay [4] it was 12.42 mm; in assay [5] it was 12.22 mm. In addition, the “DDA + salt” value in assay [1] (200 μg per disc, pH 6.0, sodium chloride 100 mM) is recorded as 45.14 mm. The “DDA + lipid” value in assay [1] (200 μg per disc, pH 6.0, triolein 1% v/v) stood at 47.32 mm. The “(S)DDA” value amounted to 0.00 mm in assay [1] (2.5% w/w DOSS solution (Solutol HS 15/ethanol/water)), 31.88 mm in assay [1] (5% w/w DOSS solution), 40.52 mm in assay [1] (7.5% w/w DOSS solution) and 42.40 mm in assay [2]. In addition, the MIC was 31.25 µg/mL in assay [3], less than 0.49 µg/mL in assay [6] and 62.5 µg/mL in assay [7].
For the compound `O=C(Nc1ccc(Cl)cc1)Nc1ccc(Cl)c(Cl)c1` [TCC, N-(4-chlorophenyl)-N′-(3,4-dichlorophenyl) urea], the DDA in assay [1] (200 μg of each test compound per disc (Example 2)) was 15.69 mm; in assay [1] (setting [8]) it was 0.00 mm; in assay [1] (setting [9]), 18.76 mm; in assay [4], 12.42 mm; in assay [5] it was 12.84 mm. Also, the “(S)DDA” value turned out to be 0.00 mm in assay [1] (0.1% w/w TCC solution), 0.00 mm in assay [1] (0.2% w/w TCC solution), 30.10 mm in assay [1] (0.3% w/w TCC solution) and 0 mm in assay [2]. Moreover, the SDDA area increase result is “∞” in assay [1] (supplemented with salt & lipid) and 154.9% in assay [1] (setting [10]). The SDDA increase stood at 10.57 mm in assay [1] (supplemented with salt & lipid) and 11.19 mm in assay [1] (setting [10]). The “SDDA with DOSS” value in assay [1] (supplemented with salt & lipid) stood at 10.57 mm; in assay [1] (unsupplemented), 29.95 mm.
